Results on 23 molecules are retold here after patent US20090192164A1, “Treating agent of inflammatory bowel disease” (ASKA Pharmaceutical Co., Ltd., priority 2006, published 2009).

In data set [1] the test system is TNF-α production in THP-1 cells. As to the kind of experiment: TNF-α production-inhibiting activity in LPS-stimulated THP-1 cells. Format: cell-based. Conditions: Homo sapiens, 2 hours, ELISA. On the procedure:
(2) Measurement of TNF-α Production-Inhibiting Activity:
THP-1 (purchased from Dainippon Pharmaceuticals Co.) which are human-derived cultured cells, were suspended in RPMI1640 culture medium (10% fetal bovine serum, containing 100 units/mL penicillin) (1×10^5 cells/mL). Onto a 24-well culture plate, 1.6 mL of the THP-1 cell suspension was inoculated, and further 0.2 mL of the test substance as dissolved in RPM11640 culture medium and 0.2 mL of LPS (E. Coli 055: B5-derived, dissolved in RPM11640 culture medium, Difco) at a concentration of 10 μg/mL were added, followed by 2 hours' cultivation under the conditions of 37° C. and 5% CO2. The supernatant obtained upon centrifugation (500×g, 5 min.) was assayed with ELISA (Amersham Bioscience, TNF-α: Human, ELISA Biotrak System) to quantify TNF-α. The concentration of each test substance required to inhibit TNF-α production by 50% (IC50) was determined as follows. First, TNF-α production inhibition (%) values at various concentrations were determined by the following formula: […]
The TNF-α production inhibition (%) obtained by the above formula and the concentration of the test substance in that occasion were computed on Prism 4 for Windows Ver 4.02 (Graph Pad Software, Inc.) to calculate IC50 value.
Background: ELISA stands for enzyme-linked immunosorbent assay.

A short description of data set [2]: Compounds' extinction rates in human liver S9. Format: in vitro ADME. Conditions: human liver S9 0.5 mg protein/mL, compound 1 μmol/L, 37° C. On the procedure: (3) Measurement of the Compounds' Extinction Rates:
To a potassium phosphate buffer solution (50 mmol/L, pH […]) containing NADPH production system (formed of 3.3 mmol/L MgCl2, 3.3 mmol/L glucose-6-phosphate, 1.3 mmol/L β-NAPD^+ and 0.4 unit/mL glucose-6-phosphate dehydrogenase), each test compound was added (in which occasion the final concentration was made 1 μmol/L) and incubated at 37° C. for 2 minutes. After the incubation, a suspension of human liver S9 (supernatant fraction obtained by centrifugation of crushed human liver cells at 9000×g) in potassium phosphate buffer solution was added to a final concentration of 0.5 mg protein/mL. This liquid reaction mixture was incubated at 37° C. for 5 minutes, to which 4 volume times thereof of acetonitrile was added, mixed, and cooled with ice. After the cooling with ice, the mixture was centrifuged (2000×g, 10 min.) and a part of the supernatant was recovered and analyzed with LSIMS/MS to calculate the residual ratio of unchanged substance in the reaction solution. The results are shown in the following Table B concurrently with the results of above (2) measurement of TNF-α production-inhibiting activity.

As for `Cc1cccc(-c2nn(C)c(COC(=O)c3ccccc3)c2-c2ccncc2)c1` [Compound B-22], the IC50 (as a rule, the concentration needed to halve the response being measured) in data set [1] is 45.5 nM. Besides, the “Parent compound remaining after 5 min in human liver S9 (%)” value (“Parent compound remaining … (%)” for short) in data set [2] came out at 25.5%.

Molecule `COc1cccc(CC(=O)Nc2onc(-c3ccc(F)c(C)c3)c2-c2ccncn2)c1` [Compound B-12, 5-[(3-Methoxyphenyl)acetylamino]-3-(3-methyl-4-fluorophenyl)-4-(4-pyrimidinyl)isoxazole] gave an IC50 in data set [1] of 52.6 nM. Moreover, the “Parent compound remaining … (%)” value in data set [2] is listed as 33.1%.

As for `Cc1cccc(CC(=O)Nc2onc(-c3ccc(F)cc3F)c2-c2ccncn2)c1` [Compound B-5, 3-(2,4-Difluorophenyl)-5-[(3-methylphenyl)acetylamino]-4-(4-pyrimidinyl)isoxazole], the midpoint of inhibition in data set [1], the IC50, lay at 139 nM. In addition, the “Parent compound remaining … (%)” value in data set [2] is reported as 46.6%.

Turning to `Cc1cccc(CC(=O)Nc2onc(-c3cccc(C)c3)c2-c2ccncn2)c1` [Compound B-10, 3-(3-Methylphenyl)-5-[(3-methylphenyl)acetylamino]-4-(4-pyrimidinyl)isoxazole], the IC50 in data set [1] turned out to be 152 nM. The “Parent compound remaining … (%)” value in data set [2] was 38.5%.

In data set [1], `Cc1cccc(-c2noc(NC(=O)CCc3ccccc3)c2-c2ccncc2)c1` [Compound B-14, 3-(3-Methylphenyl)-5-(3-phenylpropionylamino)-4-(4-pyridyl)isoxazole] displayed a concentration for half-maximal inhibition (IC50) of 65.5 nM. The “Parent compound remaining … (%)” value in data set [2] worked out at 17.6%.

With `Cc1cc(-c2noc(NC(=O)Cc3ccccc3Cl)c2-c2ccncc2)ccc1F` [Compound B-18, 5-[(2-Chlorophenyl)acetylamino]-3-(4-fluoro-3-methylphenyl)-4-(4-pyridyl)isoxazole], in data set [1], half-maximal inhibition (IC50) was put at 85.2 nM. For the same molecule, in data set [2], the “Parent compound remaining … (%)” value is recorded as 59.7%.

With `Cc1cccc(-c2noc(NC(=O)Cc3ccccc3Br)c2-c2ccncn2)c1` [Compound B-8, 5-[(2-Bromophenyl)acetylamino]-3-(3-methylphenyl)-4-(4-pyrimidinyl)isoxazole], in data set [1], the IC50 was 49.2 nM. Also, the “Parent compound remaining … (%)” value in data set [2] is recorded as 43.6%.

As for `Cc1cc(-c2noc(NC(=O)Cc3ccccc3C)c2-c2ccncn2)ccc1F` [Compound B-13, 3-(3-Methyl-4-fluorophenyl)-5-[(2-methylphenyl)acetylamino]-4-(4-pyrimidinyl)isoxazole], in data set [1], inhibition was half-maximal at 13.7 nM (IC50). Also, the “Parent compound remaining … (%)” value in data set [2] came out at 52.6%.

In data set [1], `O=C(Cc1ccccc1Cl)Nc1onc(-c2ccc(F)cc2)c1-c1ccncn1` [Compound B-1, 5-[(2-Chlorophenyl)acetylamino]-3-(4-fluorophenyl)-4-(4-pyrimidinyl)isoxazole] registered a half-maximal inhibitory concentration (IC50) of 36.1 nM. Further, in data set [2], the “Parent compound remaining … (%)” value was found to be 5.8%.

In turn, `O=C(Cc1ccccc1Cl)Nc1onc(-c2ccc(Cl)cc2)c1-c1ccncn1` [Compound B-3, 3-(4-Chlorophenyl)-5-[(2-chlorophenyl)acetylamino]-4-(4-pyrimidinyl)isoxazole] registered an IC50 in data set [1] of 48.7 nM. Further, in data set [2], the “Parent compound remaining … (%)” value amounted to 53.1%.

In turn, `O=C(Cc1ccccc1Cl)Nc1onc(-c2ccc(F)cc2F)c1-c1ccncn1` [Compound B-4, 5-[(2-Chlorophenyl)acetylamino]-3-(2,4-difluorophenyl)-4-(4-pyrimidinyl)isoxazole] yielded an IC50 in data set [1] of 32.1 nM. Further, in data set [2], the “Parent compound remaining … (%)” value amounted to 20.4%.

`Cc1cccc(-c2noc(NC(=O)Cc3ccccc3Cl)c2-c2ccncn2)c1` [Compound B-7, 5-[(2-Chlorophenyl)acetylamino]-3-(3-methylphenyl)-4-(4-pyrimidinyl)isoxazole]: half-maximal inhibition in data set [1] (IC50) required 36.7 nM. In data set [2], the “Parent compound remaining … (%)” value came to 21.2%.

As for `COc1ccc(-c2noc(NC(=O)Cc3ccccc3Cl)c2-c2ccncn2)c(F)c1` [Compound B-6, 5-[(2-Chlorophenyl)acetylamino]-3-(2-fluoro-4-methoxyphenyl)-4-(4-pyrimidinyl)isoxazole], in data set [1], the IC50 worked out at 28.5 nM. For the same molecule, the “Parent compound remaining … (%)” value in data set [2] was 24.1%.

In data set [1], `Cc1cccc(-c2noc(NC(=O)CCc3ccccc3C)c2-c2ccncc2)c1` [Compound B-15, 3-(3-Methylphenyl)-5-[(2-methylphenyl)propionylamino]-4-(4-pyridyl)isoxazole] gave a 50% inhibitory concentration (IC50) of 52.9 nM. The “Parent compound remaining … (%)” value in data set [2] stood at 23.3%.

Regarding `Cc1cc(-c2noc(NC(=O)CCc3ccccc3)c2-c2ccncc2)ccc1F` [Compound B-19, 3-(4-Fluoro-3-methylphenyl)-5-(3-phenylpropionylamino)-4-(4-pyridyl)isoxazole], the IC50 in data set [1] is 66 nM. Further, in data set [2], the “Parent compound remaining … (%)” value was 20.1%.

`O=C(Cc1c(F)cccc1Cl)Nc1onc(-c2ccc(F)cc2)c1-c1ccncn1` [Compound B-2, 5-[(2-Chloro-6-fluorophenyl)acetylamino]-3-(4-fluorophenyl)-4-(4-pyrimidinyl)isoxazole] returned an IC50 in data set [1] of 67.9 nM. Besides, the “Parent compound remaining … (%)” value in data set [2] worked out at 16.1%.

Molecule `CCn1nc(-c2cccc(C)c2)c(-c2ccncc2)c1COC(=O)c1ccccc1` [Compound B-23] yielded an IC50 in data set [1] of 26.5 nM. Further, the “Parent compound remaining … (%)” value in data set [2] worked out at 28.3%.

The molecule `Cc1ccc(F)c(-c2noc(NC(=O)Cc3ccccc3)c2-c2ccncn2)c1` [Compound B-11, 3-(2-Fluoro-5-methylphenyl)-5-(phenylacetylamino)-4-(4-pyrimidinyl)isoxazole] had an IC50 in data set [1] of 90.5 nM. In addition, the “Parent compound remaining … (%)” value in data set [2] worked out at 39.8%.

The molecule `Cc1ccc(F)c(-c2noc(NC(=O)CCc3cccc(Cl)c3)c2-c2ccncc2)c1` [Compound B-16, 5-[(3-Chlorophenyl)propionylamino]-3-(2-fluoro-5-methyl-phenyl)-4-(4-pyridyl)isoxazole] registered an IC50 in data set [1] of 58.1 nM. Moreover, in data set [2], the “Parent compound remaining … (%)” value came to 50.5%.

`CCCn1nc(-c2ccc(F)cc2)c(-c2ccncc2)c1C(=O)OCc1ccccc1Cl` [Compound B-20]: in data set [1], the IC50 turned out to be 83.3 nM. Further, the “Parent compound remaining … (%)” value in data set [2] stood at 77.0%.

For the molecule `CCn1nc(-c2ccc(F)cc2)c(-c2ccncn2)c1C(=O)OCc1ccc(Cl)cc1Cl` [Compound B-21], inhibition in data set [1] was half-maximal at 61.5 nM (IC50). The “Parent compound remaining … (%)” value in data set [2] came out at 56.4%.

As to `Cc1cccc(-c2noc(NC(=O)Cc3ccccc3C)c2-c2ccncn2)c1` [Compound B-9, 3-(3-Methylphenyl)-5-[(2-methylphenyl)acetylamino]-4-(4-pyrimidinyl)isoxazole], in data set [1], the IC50 came to 13.4 nM. Further, in data set [2], the “Parent compound remaining … (%)” value was found to be 59.9%.

Regarding `Cc1cc(-c2noc(NC(=O)Cc3ccccc3)c2-c2ccncc2)ccc1F` [Compound B-17, 3-(4-Fluoro-3-methylphenyl)-5-(phenylacetylamino)-4-(4-pyridyl)isoxazole], 78.1 nM corresponded to half-maximal inhibition in data set [1] (IC50). In addition, in data set [2], the “Parent compound remaining … (%)” value was determined as 58.0%.
